# “Also recorded” adds a separate entry of the source.
# What was measured:
# common chickweed (CC) = assay: Ex2 PRE greenhouse, % control; format: in vivo, Stellaria media; details: 28 DAT, g ai/ha by row: r12-40 2,4-DC 31.25/62.5/125/250/375 (3 rows each) + metazachlor 250/500/750 (cycling), r42-46 2,4-DC 31.25/62.5/125/250/375, r47-49 metazachlor 250/500/750
# Protocol: Test compositions containing 2,4 DC Example 1B and metazachlor (Butisan® S, 43.1% active ingredient, BASF) and mixtures of 2-(2,4-dichlorophenyl)methyl-4,4-dimethyl-3-isoxazolidinone and metazachlor, were diluted with water to provide the appropriate test rate concentrations.
# The test crops were wheat and canola (Brassica napus), the test weeds were Italian ryegrass (IR) (Lolium perenne. multiflorum), annual bluegrass (AB) (Poa annua), common lambsquarters (CL) (Chenopodium album), littleseed canarygrass (LC) (Phalaris minor), common chickweed (CC) (Stellaria media), and corn poppy (CP) (Papaver rhoeas).
# For pre-emergence testing, four disposable fiber flats (6″ by 10″) for each rate of application of each herbicide solution were filled with top soil, to which seeds of each species were planted in furrows made by a template pressed on the top of the soil. The furrows were covered with soil after planting the seed and were watered well before application of the test compounds. […]
# The control of weeds was evaluated in each experimental test at 21 days after treatment (DAT) for corn poppy and wheat and 28 DAT for all other species. […]
# Percent control was determined by a method similar to the 0 to 100 rating system disclosed in “Research Methods in Weed Science,” 2nd ed., B. Truelove, Ed.; Southern Weed Science Society; Auburn University, Auburn, Ala., 1977.
# Wild buckwheat = assay: Ex15 PRE 2,4-DC + S-metolachlor, % control 28 DAT, Colby; format: in vivo, Polygonum convolvulus
# Excerpt: The weeds tested in this study were redroot pigweed (Amaranthus retroflexus, AMARE), Jimsonweed (Datura stramonium, DATST), black nightshade (Solanum nigrum, SOLNI), large crabgrass (Digitaria sanguinalis, DIGSA), Pennsylvania smartweed (Polygonum pensylvanicum, POLPY), horseweed (Conyza canadensis, ERICA), wild buckwheat (Polygonum convolvulus, POLCO). The crop tested was Corn (var. Viking).
# To determine PRE efficacy and corn injury, five rates of each 2,4 DC (36.7% CS) and S-metolachlor (Dual II Magnum®, 82.4%) were applied either alone or as tank-mix. 2,4 DC was applied at 0, 125, 170, 210, or 250 g ai/ha and S-metolachlor was applied at 0, 267, 534, 801, or 1070 g ai/ha. Additional treatments included application of premix of pyroxasulfone plus fluthiacet-methyl (Anthem™ 23.3%) at 169.9 g ai/ha and tank-mix of mesotrione (Callisto®, 40%) at 123 g plus S-metolachlor at 1252 g. Treatments were applied just after the planting of large crabgrass, Jimsonweed, black nightshade, redroot pigweed, Pennsylvania smartweed, horseweed, wild buckwheat, and corn.
# Flats were watered and fertilized routinely after treatment application. Each treatment was replicated three times. […] Corn injury was rated for bleaching and stunting.
# Morningglory sp. = assay: Ex38 PRE 2,4-DC + pyroxasulfone, % control 28 DAT, Colby; format: in vivo, Ipomea spp
# Excerpt: (§1) Pyroxasulfone plus fluthiacet-methyl (ANTHEM™, 23.3%) applied at 165 g ai/ha was included as a standard for comparison. […] Thereafter flats were watered and fertilized routinely.
# Sorghum = assay: Ex46 PRE sorghum injury 7, 14, 21, 28 DAT; details: rate in the words
# Protocol: Treatments were applied to sorghum at the time of planting using Pennington soil. Each treatment was replicated four times. Soil was watered before and after application for herbicide activation. Plants were watered and fertilized routinely. […] Visual percent crop injury was recorded at 7, 14, 21, and 28 days after treatment using a scale of 0 (no injury) to 100 (complete plant death).
# weeds = assay: Ex13 PRE greenhouse; format: in vivo; details: 28 DAT, weed and rate in the words
# Excerpt: Pyroxasulfone (KIH-485, 85%) at 74.3 g ai/ha, pendimethalin (Prowl 3.3EC, 37.4%) at 1200 g ai/ha, or a premix of chlorsulfuron plus metsulfuron-methyl (Report Extra, 75%) at 15.8 g ai/ha were applied as commercial standards. […] Treatments were replicated 3 times and flats were watered after planting before the treatment and lightly watered after treatment application. Thereafter flats were watered and fertilized routinely.
# weeds; Wheat and canola = assay: Ex28 PRE greenhouse; format: in vivo; details: 28 DAT, rate in the words
# Excerpt: The tested weeds in this study are redroot pigweed (Amaranth retroflexus, AMARE), Italian ryegrass (Lolium perenne. multiflorum, LOLMU), wild mustard (Sinapis arvensis, SINAR), annual bluegrass (Poa annua, POAAN), wild oat (Avena fatua, AVEFA), blackgrass (Alopecurus myosuroides, ALOMY), common lambsquarters (Chenopodium album, CHEAL), littleseed canarygrass (Phalaris minor, PHAMI), common chickweed (Stellaria media, STEME), corn poppy (Papaver rhoeas, PAPRH), and silky windgrass (Apera spica-venti, APESV). The tested crops are wheat and canola.
# Additionally, 2,4 DC was applied alone at 400 g ai/ha.
# Treatments were applied before the emergence of redroot pigweed, Italian ryegrass, wild oat, blackgrass, littleseed canarygrass, common chickweed, common lambsquarters, corn poppy, wild mustard, annual bluegrass, silky windgrass, canola, and wheat. […] Flats were watered and fertilized routinely after treatment application.
# weeds; canola, and wheat = assay: Ex32 PRE greenhouse; format: in vivo; details: rate in the words
# Excerpt: Treatments were applied at the time of planting to Italian ryegrass, green foxtail, littleseed canarygrass, wild oat, quackgrass, dandelion, common chickweed, white clover, yellow nutsedge, redroot pigweed, field bindweed, canola, and wheat. […] Flats were watered and fertilized routinely after treatment application.
# weeds; wheat, and corn = assay: Ex38 PRE greenhouse; format: in vivo; details: rate in the words
# Excerpt: as §1
# [1] = tested on: weeds; corn, wheat, cotton, cowpea, and bush bean; assay: Ex42 PRE greenhouse; format: in vivo; details: crop and rate in the words
# Excerpt: Thereafter flats were watered and fertilized routinely.
structure (smiles),measurement,setting,value
"CC1(C)CON(Cc2ccc(Cl)cc2Cl)C1=O [2,4-DC, 2-(2,4-dichlorophenyl)methyl-4,4-dimethyl-3-isoxazolidinone]",% Control CC,common chickweed (CC),100%
same,X,"Wild buckwheat; 2,4-DC alone 125 g ai/ha",15%
same,X,"Wild buckwheat; 2,4-DC alone 170 g ai/ha",43%
same,X,"Wild buckwheat; 2,4-DC alone 210 g ai/ha",30%
same,X,"Wild buckwheat; 2,4-DC alone 250 g ai/ha",32%
same,"X (% control, 2,4-DC alone)","Morningglory sp.; PRE, 2,4-DC 50 g ai/ha",0%
same,"X (% control, 2,4-DC alone)","Morningglory sp.; PRE, 2,4-DC 100 g ai/ha",2%
same,"X (% control, 2,4-DC alone)","Morningglory sp.; PRE, 2,4-DC 200 g ai/ha",2%
same,sorghum safety in words,Sorghum,safe on sorghum at rates ranging from 31 to 125 g ai/ha irrespective of rating timings
same,weed control in words,weeds,alone at all rates did not control most of the species
same,weed control / crop safety in words,weeds; Wheat and canola,"alone provided control of pigweed and corn poppy at 400 g, Italian ryegrass at ≥200 g, blackgrass and lambsquarters at 400 g, and chickweed at all rates; also recorded: caused greater than 10% injury to canola at all rates and 2,4 DC was safe on wheat up to 200 g ai/ha"
same,weed control / crop safety in words,"weeds; canola, and wheat",alone controlled Italian ryegrass and wild oat at 400 g; common chickweed was controlled at all rates; green foxtail was controlled at ≥100 g; littleseed canarygrass and redroot pigweed were controlled at 200 g
same,weed control / crop safety in words,"weeds; wheat, and corn","applied alone at ≥50 g ai/ha controlled (≥85%) kochia, at ≥200 g controlled Italian ryegrass or redroot pigweed, and controlled velvetleaf at 400 g"
same,crop safety in words,[1],applied alone was safe at all rates on all crops at 14 DAT
